Paper PMC10134960, “Discovery of sulfonamide-tethered isatin derivatives as novel anticancer agents and VEGFR-2 inhibitors” (Journal of Enzyme Inhibition and Medicinal Chemistry, 2023)
One block for each molecule: values may come before it.

Legend:
[1] = system: NCI panel of 58 human tumour cell lines; test: NCI in vitro single-dose antiproliferative assay, panel of 58 tumour cell lines; format: cell-based; conditions: single concentration of 10 μM, read-out: cell inhibition (mean % growth inhibition, GI)
Method: (§1) The designed isatin derivatives 6a-i, 11a-c and 12a-c were examined for in vitro antitumor activity on NCI panel involving 58 distinct human tumour cell lines covering nine distinct types of cancer, at single concentration of 10 μM (supplementary file). […] Based on the findings, we concluded that none of compounds 6a, 6c, or 11a were able to increase cell inhibition by more than 20%. And by looking at the mean growth inhibition of the other compounds on each cancer, we discovered that, in addition to CNS cancer in compound 11c and leukaemia in compounds 12b and 12c, all the compounds had the strongest mean growth inhibition on breast cancer cell lines.
(§2) The supplementary data included descriptions of every experimental technique.
(§3) NCI-60 cancer cell lines screening
(§4) Primary anticancer assay was performed on a panel of sixty human tumour cell lines derived from nine neoplastic diseases, in accordance with the protocol of the Drug Evaluation Branch, National Cancer Institute, Bethesda, Maryland, USA. Tested compounds were added to the cell culture at a single concentration ([…]) and the cultures were incubated for 48 h. End point determinations were made with a protein binding dye, sulforhodamine B (SRB). Results for each tested compound were reported as the percent of growth of treated cells when compared to untreated control cells. The percentage growth was evaluated spectrophotometrically versus controls not treated with test agents 1. […]

CA IX [2] = biological target: T1, CA IX (Homo sapiens, UniProt Q16790); test: Carbonic anhydrase inhibition, stopped-flow CO2 hydration, CA IX; format: biochemical; conditions: stopped flow assay, mean of triplicate assays
T1 construct: made in house

T47D cells [3] = test: NCI in vitro single-dose cellular antiproliferative assay, T47D cells; format: cell-based; conditions: Homo sapiens; T47D breast cancer cells, single concentration of 10 μM; read-out: GI% (growth inhibition)
Method: as §1, §2, §3, §4

CA II = CA II (Homo sapiens, UniProt P00918); test: biochemical
Method: Carbonic anhydrase I, II, and IX inhibition studies
The CO2 hydration actions catalyzed by carbonic anhydrase for targeted compounds herein
presented were measured using an Applied Photophysics stopped-flow instrument. The enzymes
are recombinant proteins that have been created in a lab. Following the initial rates of the CA-
catalyzed CO2 hydration reaction for a period of 10-100 s, phenol red (at a concentration of 0.2
mM) was used as an indicator, working at an absorbance maximum of 557 nm, with 20 mM
Hepes (pH 7.5) as a buffer, and 20 mM Na2SO4 (to maintain constant the ionic strength). The
CO2 concentrations used to determine the kinetic parameters and inhibition constants ranged
from 1.7 to 17 mM. At least six traces of the first 5-10% of the reaction were utilized to
determine the beginning velocity for each inhibitor. In the same way, the uncatalyzed rates were calculated and deducted from the total measured rates. Stock inhibitor solutions (0.1 mM) were
produced in distilled-deionized water, followed by dilutions with the assay buffer up to 0.01 nM.
Prior to the experiment, the inhibitor and enzyme solutions were preincubated together for 15
minutes at room temperature to allow for the development of the E-I complex. The inhibition
constants were calculated using non-linear least-squares methods using the ChengPrusoff
equation in PRISM 3. They reflect the average of at least three individual measurements 6, 7.

T47D cells [4] = test: In vitro cytotoxicity against T47D (sulforhodamine B colorimetric test); conditions: Homo sapiens, 72 h, read-out: IC50 ± S.D. T47D
Method: Doxorubicin was set as reference in this assay.
The cytotoxic efficacy of the target compounds against T47D cells was determined, using the SRB colorimetric technique, as previously reported. Briefly, exponentially growing cells were trypsinized, counted and seeded at the appropriate densities (5000 cells/100 μL/ well) into 96-well microtiter plates.
Then, the cells were exposed to the tested compounds at the desired concentrations (0.01, 0.1, 1, 10, and 100 μM) or to 1% dimethyl sulfoxide (DMSO) for 72 h. At the end of the treatment period, the media were removed, and the cells were fixed with 10% trichloroacetic acid at 4 °C for 1 h. Following, the cells were washed with tap water four times and incubated with SRB 0.4% for 30 min. Excess dye was removed by washing repeatedly with 1% (vol/vol) acetic acid.
The protein-bound dye was dissolved in 10 mM Tris base solution for (optical density) OD determination at 510 nm using a Spectra Max plus Microplate Reader (Molecular Devices, CA).
Cell viability was expressed relative to the untreated control cells 2, 3.

CA I = biological target: T2, CA I (Homo sapiens, UniProt P00915); test: Carbonic anhydrase inhibition, stopped-flow CO2 hydration, CA I; format: biochemical; conditions: stopped flow assay, mean of triplicate assays
T2 construct: made in house
T2 sequence (P00915 whole entry): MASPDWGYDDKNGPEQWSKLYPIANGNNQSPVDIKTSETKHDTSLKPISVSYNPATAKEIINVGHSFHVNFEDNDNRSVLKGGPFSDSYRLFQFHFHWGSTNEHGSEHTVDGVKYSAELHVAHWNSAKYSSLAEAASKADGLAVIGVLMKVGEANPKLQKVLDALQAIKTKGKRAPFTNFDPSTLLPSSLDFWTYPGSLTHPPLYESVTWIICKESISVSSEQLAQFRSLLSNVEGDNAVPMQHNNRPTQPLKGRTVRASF

VEGFR-2 = biological target: T3, VEGFR-2 (Homo sapiens, UniProt P35968); test: VEGFR-2 inhibition assay (HTRF); format: biochemical; conditions: for IC50: mean ± SD of triplicate, read-out: VEGFR-2 IC50 ± S.D.
T3 construct: purchased BioAssay Systems EKIN-400
T3 sequence (P35968 20-1356): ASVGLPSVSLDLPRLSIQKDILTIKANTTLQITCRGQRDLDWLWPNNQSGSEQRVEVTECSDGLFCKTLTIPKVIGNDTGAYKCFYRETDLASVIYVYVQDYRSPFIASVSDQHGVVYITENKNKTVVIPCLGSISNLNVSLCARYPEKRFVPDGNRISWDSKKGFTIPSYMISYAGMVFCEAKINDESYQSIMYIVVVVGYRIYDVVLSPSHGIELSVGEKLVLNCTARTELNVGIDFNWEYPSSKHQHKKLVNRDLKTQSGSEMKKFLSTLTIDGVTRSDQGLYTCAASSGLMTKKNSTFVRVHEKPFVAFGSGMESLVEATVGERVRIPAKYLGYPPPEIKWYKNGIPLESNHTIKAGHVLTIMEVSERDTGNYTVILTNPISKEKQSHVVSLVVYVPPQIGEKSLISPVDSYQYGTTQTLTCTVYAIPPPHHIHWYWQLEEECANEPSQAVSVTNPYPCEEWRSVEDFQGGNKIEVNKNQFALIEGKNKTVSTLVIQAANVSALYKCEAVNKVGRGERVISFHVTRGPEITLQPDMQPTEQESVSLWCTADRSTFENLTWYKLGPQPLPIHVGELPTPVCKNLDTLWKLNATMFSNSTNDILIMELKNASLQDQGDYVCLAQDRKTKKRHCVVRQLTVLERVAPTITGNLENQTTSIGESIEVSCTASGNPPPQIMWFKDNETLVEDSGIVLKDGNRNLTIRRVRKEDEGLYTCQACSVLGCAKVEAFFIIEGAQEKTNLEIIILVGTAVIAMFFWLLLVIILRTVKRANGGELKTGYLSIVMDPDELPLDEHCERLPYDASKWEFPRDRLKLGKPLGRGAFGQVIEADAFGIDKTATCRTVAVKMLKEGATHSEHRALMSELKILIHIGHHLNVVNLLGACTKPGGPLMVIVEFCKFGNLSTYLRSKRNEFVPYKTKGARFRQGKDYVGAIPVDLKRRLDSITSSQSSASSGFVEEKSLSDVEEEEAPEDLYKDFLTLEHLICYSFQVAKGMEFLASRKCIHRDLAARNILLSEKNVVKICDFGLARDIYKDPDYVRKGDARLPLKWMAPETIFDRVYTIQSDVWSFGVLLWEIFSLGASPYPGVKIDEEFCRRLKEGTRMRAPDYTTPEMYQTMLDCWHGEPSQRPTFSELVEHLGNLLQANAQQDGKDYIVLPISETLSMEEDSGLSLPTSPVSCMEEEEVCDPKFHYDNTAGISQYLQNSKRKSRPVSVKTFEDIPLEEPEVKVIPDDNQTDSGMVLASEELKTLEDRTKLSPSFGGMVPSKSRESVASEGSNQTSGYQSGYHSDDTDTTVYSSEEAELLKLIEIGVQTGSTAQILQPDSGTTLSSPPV
Method: HTRF (homogeneous time-resolved fluorescence) assay method was used to conduct inhibitory action of all newly synthesized compounds against VEGFR-2. VEGFR-2 kinase (BioAssay Systems - Kinase Assay Kit, EKIN-400) and its substrate were incubated for 5 min in a buffer solution with newly synthesized compounds/Sorafnib to initiate the enzymatic reaction, then ATP was added to the reaction mixture. Hold under 30 min at room temperature. The reaction was stopped by adding

T47D cells [5] = test: Annexin V-FITC/PI apoptosis assay; format: cell-based, human; conditions: for Early apoptosis / Late apoptosis: 24 h, annexin V-FITC/PI; for increase of overall apoptosis in comparison to the control: versus untreated control
Source text: To explore link between growth suppression activity of compounds 11b and 12b with initiation of apoptosis indicated by rising population of sub-G1 in treated T47D cell lines, the Annexin V-FITC/PI double labelling (AV/PI) apoptosis assay was done. The outcomes of the experiment are shown in Figure 4, showing that compounds 11b and 12b caused T47D cell lines to undergo early and late apoptosis. In fact, % of apoptotic cells amplified from 0.41% at early and 0.22% at late apoptosis in T47D cells that had not been treated to 31.0% of early and 12.07% of late apoptosis in T47D cell that had been treated with compound 11b and to 23.5% at early and 9.4% at late apoptosis of T47D cells that had been treated with compound 12b. According to these findings, compounds 11b and 12b increased the overall apoptosis of T47D cells by roughly 19 and 16.2 times, respectively, in comparison to the control.
The supplementary data included descriptions of every experimental technique. […]
μM of compounds 11b and 12b. […]
(§5) and fixed for 12 h. […] Then, the cells
Cell cycle analysis and apoptosis were […]
experiment has been carried out three times.
Annexin V-FITC apoptosis assay […]
washed with cold phosphate-buffer saline (PBS). Cells were then stained with Annexin V-FITC […]
The samples were analyzed using the flow cytometer 8, 9.

T47D cells [6] = test: Cell cycle distribution analysis by flow cytometry; format: cell-based, human; conditions: 10 μM, 24 h
Method: DMSO (control) or compounds 11b and 12b were applied to T47D cells, and flow cytometry was used to determine the DNA concentration. Figure 3 presents the findings. […]
μM of compounds 11b and 12b.
as §5
Cell cycle analysis and apoptosis were
experiment has been carried out three times. […]

CA IX [7] = biological target: CA IX; parameters: method as in PMID 30445264; conditions: cancer-related CA IX isoform; cited from earlier work

melting point: 250 to 252 °C
SMILES: COc1ccc(/C(C)=N/N=C2/C(=O)Nc3ccccc32)cc1S(N)(=O)=O [Compound 6a]
inhibition at 10 µM [1]: ≤ 20%

melting point: 262 to 264 °C
SMILES: COc1ccc(/C(C)=N/N=C2/C(=O)Nc3ccc(F)cc32)cc1S(N)(=O)=O [Compound 6b]

melting point: 266 to 268 °C
SMILES: COc1ccc(/C(C)=N/N=C2/C(=O)Nc3c(F)cccc32)cc1S(N)(=O)=O [Compound 6c]
inhibition at 10 µM [1]: ≤ 20%

melting point: 268 to 270 °C
SMILES: COc1ccc(/C(C)=N/N=C2/C(=O)Nc3ccc(Cl)cc32)cc1S(N)(=O)=O [Compound 6d]

melting point: 278 to 280 °C
SMILES: COc1ccc(/C(C)=N/N=C2/C(=O)Nc3c(Cl)cccc32)cc1S(N)(=O)=O [Compound 6e]

Ki (CA IX [2]): > 100 µM
melting point: 274 to 276 °C
Ki (CA II): > 100 µM
Ki (CA I): > 100 µM
inhibition at 10 µM (VEGFR-2): 86.8%
IC50 (VEGFR-2): 0.0567 ± 0.00072 µM
SMILES: COc1ccc(/C(C)=N/N=C2/C(=O)Nc3ccc(Br)cc32)cc1S(N)(=O)=O [Compound 6f]
inhibition at 10 µM (T47D cells [3]): 54%
IC50 (T47D cells [4]): 5.45 ± 0.24 µM

melting point: 276 to 278 °C
SMILES: COc1ccc(/C(C)=N/N=C2/C(=O)Nc3cc(Br)ccc32)cc1S(N)(=O)=O [Compound 6g]

melting point: 264 to 266 °C
SMILES: COc1ccc2c(c1)/C(=N\N=C(/C)c1ccc(OC)c(S(N)(=O)=O)c1)C(=O)N2 [Compound 6h]

melting point: 270 to 272 °C
SMILES: COc1ccc(/C(C)=N/N=C2/C(=O)Nc3ccc(OC(F)(F)F)cc32)cc1S(N)(=O)=O [Compound 6i]
inhibition at 10 µM (T47D cells [3]): 32%
IC50 (T47D cells [4]): 24.1 ± 1.08 µM

SMILES: COc1ccc(/C(C)=N/N=C2/C(=O)N(C)c3ccccc32)cc1S(N)(=O)=O [Compound 11a]
inhibition at 10 µM [1]: ≤ 20%

Ki (CA IX [2]): > 100 µM
melting point: 248 to 250 °C
Ki (CA II): > 100 µM
Ki (CA I): > 100 µM
inhibition at 10 µM (VEGFR-2): 72.7%
IC50 (VEGFR-2): 0.0634 ± 0.00072 µM
SMILES: COc1ccc(/C(C)=N/N=C2/C(=O)N(C)c3ccc(Cl)cc32)cc1S(N)(=O)=O [Compound 11b]
Early apoptosis (T47D cells [5]): 31.0%
Late apoptosis (T47D cells [5]): 12.07%
increase of overall apoptosis in comparison to the control (T47D cells [5]): roughly 19 times
inhibition at 10 µM (T47D cells [3]): 55%
IC50 (T47D cells [4]): 1.83 ± 0.08 µM
%G0/G1 (T47D cells [6]): 68.42%
%Sub-G1 (T47D cells [6]): 45.88%

Ki (CA IX [2]): > 100 µM
melting point: 263 to 265 °C
Ki (CA II): > 100 µM
Ki (CA I): > 100 µM
inhibition at 10 µM (VEGFR-2): 92%
IC50 (VEGFR-2): 0.0301 ± 0.00031 µM
SMILES: COc1ccc(/C(C)=N/N=C2/C(=O)N(C)c3ccc(Br)cc32)cc1S(N)(=O)=O [Compound 11c]
inhibition at 10 µM (T47D cells [3]): 52%
IC50 (T47D cells [4]): 10.4 ± 0.47 µM

melting point: 235 to 237 °C
SMILES: COc1ccc(/C(C)=N/N=C2/C(=O)N(Cc3ccccc3)c3ccccc32)cc1S(N)(=O)=O [Compound 12a]
inhibition at 10 µM (T47D cells [3]): 57%
IC50 (T47D cells [4]): 11.6 ± 0.52 µM

Ki (CA IX [2]): > 100 µM
melting point: 245 to 247 °C
Ki (CA II): > 100 µM
Ki (CA I): > 100 µM
inhibition at 10 µM (VEGFR-2): 97.2%
IC50 (VEGFR-2): 0.0231 ± 0.00041 µM
SMILES: COc1ccc(/C(C)=N/N=C2/C(=O)N(Cc3ccccc3)c3ccc(Cl)cc32)cc1S(N)(=O)=O [Compound 12b]
Early apoptosis (T47D cells [5]): 23.5%
Late apoptosis (T47D cells [5]): 9.4%
increase of overall apoptosis in comparison to the control (T47D cells [5]): ~16.2 times
inhibition at 10 µM (T47D cells [3]): 28%
IC50 (T47D cells [4]): 3.59 ± 0.16 µM
%S (T47D cells [6]): 41.05%
%Sub-G1 (T47D cells [6]): 39.15%

melting point: 260 to 262 °C
SMILES: COc1ccc(/C(C)=N/N=C2/C(=O)N(Cc3ccccc3)c3ccc(Br)cc32)cc1S(N)(=O)=O [Compound 12c]
inhibition at 10 µM (T47D cells [3]): 39%
IC50 (T47D cells [4]): 16.5 ± 0.74 µM

SMILES: COc1cccc2c1C(=O)c1c(O)c3c(c(O)c1C2=O)C[C@@](O)(C(=O)CO)C[C@@H]3O[C@H]1C[C@H](N)[C@H](O)[C@H](C)O1 [Doxorubicin, reference compound]
IC50 (T47D cells [4]): 2.26 ± 0.1 µM

SMILES: CN1C(=O)/C(=N\c2ccc(NC(=O)Nc3ccc(S(N)(=O)=O)cc3)cc2)c2cc(Cl)ccc21 [compound II]
Ki (CA IX [7]): 0.0052 µM
